Assay results reported in US11825838B2, “Tricyclic carboxamides for controlling arthropods” (Bayer CropScience Aktiengesellschaft, priority 2017, dated 2023).

How the values were obtained:
Assay type in all cases: in vivo
[1] = test system: Rhipicephalus sanguineus; test: Rhipicephalus sanguineus in vitro contact test with adult brown dog ticks; conditions: application rate 5 μg/cm^2 (=500 g/ha), after 48 h, adult dog ticks dead or moribund
Description: Rhipicephalus sanguineus—In Vitro Contact Tests with Adult Brown Dog Ticks
(§1) For the coating of the test tubes, 9 mg of active ingredient are first dissolved in 1 ml of acetone p.a. and then diluted to the desired concentration with acetone p.a. 250 μl of the solution are distributed homogeneously on the inner walls and the base of a 25 ml glass tube by turning and rocking on an orbital shaker (rocking rotation at 30 rpm for 2 h). With 900 ppm of active ingredient solution and internal surface area 44.7 cm^2, given homogeneous distribution, an area-based dose of 5 μg/cm^2 is achieved.
After the solvent has evaporated off, the tubes are populated with 5-10 adult dog ticks (Rhipicephalus sanguineus), sealed with a perforated plastic lid and incubated in a horizontal position in the dark at room temperature and ambient humidity. After 48 h, efficacy is determined. To this end, the ticks are knocked to the base of the tube and incubated on a hotplate at 45-50° C. for not more than 5 min. Ticks which remain motionless on the base or move in such an uncoordinated manner that they are unable to deliberately avoid the heat by climbing upwards are considered to be dead or moribund.
An efficacy of 100% means that all the ticks were dead or moribund. 0% efficacy means that none of the ticks were harmed.

[2] = test system: Boophilus microplus; test: Boophilus microplus injection test; conditions: application rate 20 μg/animal, assessed after 7 days by laying of fertile eggs
Description: Boophilus microplus—Injection Test
(§2) Solvent: dimethyl sulfoxide
To produce a suitable active compound preparation, 10 mg of active compound are mixed with 0.5 ml of solvent and the concentrate is diluted to the desired concentration with solvent.
1 μl of the active ingredient solution is injected into the abdomen of 5 engorged adult female cattle ticks (Boophilus microplus). The animals are transferred into dishes and kept in a climate-controlled room.
Efficacy is assessed after 7 days by laying of fertile eggs. Eggs which are not visibly fertile are stored in a climate-controlled cabinet until the larvae hatch after about 42 days. An efficacy of 100% means that none of the ticks has laid any fertile eggs; 0% means that all the eggs are fertile.

[3] = test system: Ctenocephalides felis; test: Ctenocephalides felis oral test; conditions: application rate 100 ppm in citrated cattle blood, after 2 days
Description: Ctenocephalides felis—Oral Test
as §2
To produce a suitable active ingredient formulation, 10 mg of active ingredient are mixed with 0.5 ml of dimethyl sulfoxide. Dilution with citrated cattle blood gives the desired concentration.
About 20 unfed adult cat fleas (Ctenocephalides felis) are placed into a chamber which is closed at the top and bottom with gauze. A metal cylinder whose bottom end is closed with parafilm is placed onto the chamber. The cylinder contains the blood/active ingredient formulation, which can be imbibed by the fleas through the parafilm membrane.
After 2 days, the rate of extermination in % is determined. 100% means that all of the fleas have been killed; 0% means that none of the fleas have been killed.

[4] = test system: Lucilia cuprina; test: Lucilia cuprina test; conditions: application rate 100 ppm, L1 larvae, after 2 days
Description: as §2
(§3) To produce a suitable active ingredient formulation, 10 mg of active ingredient are mixed with 0.5 ml of dimethyl sulfoxide, and the concentrate is diluted with water to the desired concentration.
About 20 L1 larvae of the Australian sheep blowfly (Lucilia cuprina) are transferred into a test vessel containing minced horsemeat and the active compound preparation of the desired concentration.
After 2 days, the rate of extermination in % is determined. 100% means that all the larvae have been killed; 0% means that no larvae have been killed.

[5] = test system: Phaedon cochleariae; test: Phaedon cochleariae spray test (PHAECO); conditions: application rate 100 g/ha, spray, after 7 days; for pest or weed control at 100 g/ha: Phaedon cochleariae, 168 h, read-out: efficacy
Description: Phaedon cochleariae—Spray Test
(§4) To produce a suitable active ingredient formulation, 1 part by weight of active ingredient is dissolved with the specified parts by weight of solvent and made up to the desired concentration with water containing an emulsifier concentration of 1000 ppm. To produce further test concentrations, the formulation is diluted with emulsifier-containing water.
After 7 days, the efficacy in % is determined. 100% means that all the beetle larvae have been killed; 0% means that no beetle larvae have been killed.
Phaedon cochleariae—Spray Test (PHAECO)
as §4, with “compound” for “ingredient”
Discs of Chinese cabbage leaves (Brassica pekinensis) are sprayed with an active compound formulation of the desired concentration and, after drying, populated with larvae of the mustard beetle (Phaedon cochleariae).
After the desired time, the efficacy in % is determined. 100% means that all the beetle larvae have been killed; 0% means that no beetle larvae have been killed.

[6] = test system: Spodoptera frugiperda; test: Spodoptera frugiperda spray test (SPODFR); conditions: application rate 100 g/ha, spray, after 7 days; for pest or weed control at 100 g/ha: Spodoptera frugiperda, 168 h, read-out: efficacy
Description: Spodoptera frugiperda—Spray Test
as §4
Leaf discs of maize (Zea mays) are sprayed with an active ingredient formulation of the desired concentration and, after drying, populated with caterpillars of the armyworm (Spodoptera frugiperda).
After 7 days, the efficacy in % is determined. 100% means that all the caterpillars have been killed; 0% means that no caterpillar has been killed.
Spodoptera frugiperda—Spray Test (SPODFR)
as §4, with “compound” for “ingredient”
Leaf discs of maize (Zea mays) are sprayed with an active compound formulation of the desired concentration and, after drying, populated with caterpillars of the armyworm (Spodoptera frugiperda).
After the desired time, the efficacy in % is determined. 100% means that all the caterpillars have been killed; 0% means that no caterpillar has been killed.

[7] = test system: Anopheles gambiae strain RSPH (homozygot kdr); test: Anopheles test (ANPHGB surface treatment); conditions: application rate 100 mg/m^2, glazed tile, exposure 30 minutes, 24 hours after contact, read-out: efficacy (mortality)
Description: Anopheles Test (ANPHGB Surface Treatment)
(§5) Solvent: acetone+2000 ppm rapeseed oil methyl ester (RME)
(§6) To produce a suitable active compound formulation, the active compound is dissolved in the solvent (2 mg/ml). The active compound formulation is pipetted onto a glazed tile and, after it has dried off, adult mosquitoes of the species Anopheles gambiae strain RSPH (homozygot kdr) are placed onto the treated tile. The exposure time is 30 minutes.
(§7) 24 hours after contact with the treated surface, mortality in % is determined. 100% means that all mosquitoes have been killed; 0% means that none of the mosquitoes have been killed.

[8] = test system: Anopheles funestus strain FUMOZ-R; test: Anopheles test (ANPHFU surface treatment); conditions: application rate 100 mg/m^2, glazed tile, exposure 30 minutes, 24 hours after contact, read-out: efficacy (mortality)
Description: Anopheles Test (ANPHFU Surface Treatment)
as §5
as §6, with “funestus” for “gambiae”, “FUMOZ-R (Hunt et al., Med Vet Entomol. 2005 September; 19(3):271-5)” for “RSPH (homozygot kdr)”
as §7

[9] = test system: Aedes aegypti strain MONHEIM; test: Aedes test (AEDSAE surface treatment); conditions: application rate 100 mg/m^2, glazed tile, exposure 30 minutes, 24 hours after contact, read-out: efficacy (mortality)
Description: Aedes Test (AEDSAE Surface Treatment)
as §5
as §6, with “Aedes aegypti” for “Anopheles gambiae”, “MONHEIM” for “RSPH (homozygot kdr)”
as §7

[10] = test system: Musca domestica; test: Musca domestica test; conditions: application rate 100 ppm, adult houseflies, after 2 days
Description: as §2, §3
Vessels containing a sponge treated with sugar solution and the active ingredient formulation of the desired concentration are populated with 10 adult houseflies (Musca domestica).
After 2 days, the rate of extermination in % is determined. 100% means that all of the flies have been killed; 0% means that none of the flies have been killed.

[11] = test system: Myzus persicae; test: Myzus persicae oral test; conditions: application rate 4 ppm, after 5 days
Description: To produce a suitable active compound preparation, 1 part by weight of active compound is dissolved with the specified amounts by weight of solvent and made up to the desired concentration with water.
50 ul of the active compound preparation are transferred to microtiter plates and made up to a final volume of 200 μl with 150 μl of IPL41 insect medium (33%+15% sugar). Then the plates are sealed with parafilm through which a mixed population of the green peach aphid (Myzus persicae), which is located in a second microtiter plate, can pierce and absorb the solution.
(§8) After 5 days, the efficacy in % is determined. 100% means that all the aphids have been killed; 0% means that no aphids have been killed.

[12] = test system: Tetranychus urticae; test: Tetranychus urticae spray test, OP-resistant (TETRUR); conditions: spray, after 6 days
Description: Tetranychus urticae—Spray Test, OP-Resistant
as §4
Discs of bean leaves (Phaseolus vulgaris) infested with all stages of the greenhouse red spider mite (Tetranychus urticae) are sprayed with an active compound preparation of the desired concentration.
After 6 days, the efficacy in % is determined. 100% means that all the spider mites have been killed; 0% means that no spider mites have been killed.
Tetranychus urticae—Spray Test; OP-Resistant (TETRUR)
as §4, with “compound” for “ingredient”
Discs of bean leaves (Phaseolus vulgaris) infested with all stages of the greenhouse red spider mite (Tetranychus urticae) are sprayed with an active compound formulation of the desired concentration.
After the desired time, the efficacy in % is determined. 100% means that all the spider mites have been killed; 0% means that no spider mites have been killed.

[13] = test system: Ctenocephalides felis; test: Ctenocephalides felis in vitro contact test with adult cat fleas; conditions: application rate 5 μg/cm^2 (=500 g/ha), after 48 h, adult cat fleas dead or moribund
Description: Ctenocephalides felis—In Vitro Contact Tests with Adult Cat Fleas
as §1
After the solvent has evaporated off, the tubes are populated with 5-10 adult cat fleas (Ctenocephalides felis), sealed with a perforated plastic lid and incubated in a horizontal position at room temperature and ambient humidity. After 48 h, efficacy is determined. To this end, the tubes are stood upright and the fleas are knocked to the base of the tube. Fleas which remain motionless at the base or move in an uncoordinated manner are considered to be dead or moribund.
100% efficacy means that all the fleas were dead or moribund. 0% efficacy means that no fleas were harmed.

[14] = test system: Myzus persicae; test: Myzus persicae spray test (MYZUPE); conditions: application rate 100 g/ha, spray, after 5 days
Description: Myzus persicae—Spray Test
as §4
Discs of Chinese cabbage leaves (Brassica pekinensis) infested by all stages of the green peach aphid (Myzus persicae) are sprayed with an active compound preparation of the desired concentration.
as §8
Myzus Persicae—Spray Test (MYZUPE)
as §4, with “compound” for “ingredient”
Discs of Chinese cabbage leaves (Brassica pekinensis) infested with all stages of the green peach aphid (Myzus persicae) are sprayed with an active compound formulation of the desired concentration.
After the desired time, the efficacy in % is determined. 100% means that all the aphids have been killed; 0% means that no aphids have been killed.

Structure (SMILES) | efficacy [1] [%] | efficacy [2] [%] | efficacy (rate of extermination) [3] [%] | efficacy (rate of extermination) [4] [%] | pest or weed control at 100 g/ha [5] [%] | pest or weed control at 100 g/ha [6] [%] | mortality at 100 mg/m2 [7] [%] | mortality at 100 mg/m2 [8] [%] | mortality at 100 mg/m2 [9] [%] | efficacy (rate of extermination) [10] [%] | efficacy [11] [%] | efficacy [5] [%] | efficacy [6] [%] | efficacy ([12]; application rate 20 g/ha) [%] | efficacy ([12]; application rate 100 g/ha) [%] | efficacy [13] [%] | efficacy [14] [%]
Cn1cc(-c2cnn(-c3c(Cl)cc(C(F)(C(F)(F)F)C(F)(F)F)cc3Cl)c2)cc1C(=O)NC1CC1 [I-T1-3, N-cyclopropyl-4-{1-[2,6-dichloro-4-(1,1,1,2,3,3,3-heptafluoropropan-2-yl)phenyl]-1H-pyrazol-4-yl}-1-methyl-1H-pyrrole-2-carboxamide] | 100 | 100 | 100 | 100 | 100 | 100 | 80 to 100 |  |  |  |  |  |  |  |  |  | 
Cn1c(C(=O)NC2CC2)cc(-c2cnn(-c3c(Cl)cc(C(F)(C(F)(F)F)C(F)(F)F)cc3Cl)c2)c1Cl [I-T1-9, 5-chloro-N-cyclopropyl-4-{1-[2,6-dichloro-4-(1,1,1,2,3,3,3-heptafluoropropan-2-yl)phenyl]-1H-pyrazol-4-yl}-1-methyl-1H-pyrrole-2-carboxamide] |  |  |  |  | 100 | 100 | 80 to 100 | 80 to 100 | 80 to 100 |  |  |  |  |  |  |  | 
Cc1sc(-c2cnn(-c3c(Cl)cc(C(F)(C(F)(F)F)C(F)(F)F)cc3Cl)c2)cc1C(=O)NC1(C#N)CC1 [I-T1-10] |  | 100 | 100 | 100 |  |  |  |  |  | 100 | 100 | 100 | 100 | 100 | 100 |  | 
O=C(NC1CC1)c1csc(-c2cnn(-c3c(Cl)cc(C(F)(C(F)(F)F)C(F)(F)F)cc3Cl)c2)c1 [I-T1-12, N-cyclopropyl-5-{1-[2,6-dichloro-4-(1,1,1,2,3,3,3-heptafluoropropan-2-yl)phenyl]-1H-pyrazol-4-yl}thiophene-3-carboxamide] | 100 |  | 100 | 100 | 100 | 100 |  |  |  | 100 | 100 |  |  |  |  | 100 | 
N#CC1(NC(=O)c2csc(-c3cnn(-c4c(Cl)cc(C(F)(C(F)(F)F)C(F)(F)F)cc4Cl)c3)c2)CC1 [I-T1-13, N-(1-cyanocyclopropyl)-5-{1-[2,6-dichloro-4-(1,1,1,2,3,3,3-heptafluoropropan-2-yl)phenyl]-1H-pyrazol-4-yl}thiophene-3-carboxamide] |  | 100 | 100 | 100 | 100 | 100 |  |  | 80 to 100 | 100 |  |  |  | 90 | 100 |  | 
O=C(NC1CC1)c1cc(-c2cnn(-c3c(Cl)cc(C(F)(C(F)(F)F)C(F)(F)F)cc3Cl)c2)sc1Cl [I-T1-16, 2-chloro-N-cyclopropyl-5-{1-[2,6-dichloro-4-(1,1,1,2,3,3,3-heptafluoropropan-2-yl)phenyl]-1H-pyrazol-4-yl}thiophene-3-carboxamide] |  |  |  |  | 100 | 100 |  |  |  |  | 100 |  |  | 90 | 100 |  | 100
